Assay results from ChEMBL document CHEMBL5046228 (Eur J Med Chem, 2022).

Columns and labels:
[1] = biological target: Epidermal growth factor receptor (Homo sapiens, UniProt P00533, C797S/T790M); test: Inhibition of EGFR T790M/C797S double mutant (unknown origin) using flurogenic substrate in presence of ATP by HTRF assay
[2] = biological target: Epidermal growth factor receptor (Homo sapiens, UniProt P00533); test: Inhibition of wild type EGFR (unknown origin) using flurogenic substrate in presence of ATP by HTRF assay
Epidermal growth factor receptor (Homo sapiens, UniProt P00533), sequence (P00533 whole entry): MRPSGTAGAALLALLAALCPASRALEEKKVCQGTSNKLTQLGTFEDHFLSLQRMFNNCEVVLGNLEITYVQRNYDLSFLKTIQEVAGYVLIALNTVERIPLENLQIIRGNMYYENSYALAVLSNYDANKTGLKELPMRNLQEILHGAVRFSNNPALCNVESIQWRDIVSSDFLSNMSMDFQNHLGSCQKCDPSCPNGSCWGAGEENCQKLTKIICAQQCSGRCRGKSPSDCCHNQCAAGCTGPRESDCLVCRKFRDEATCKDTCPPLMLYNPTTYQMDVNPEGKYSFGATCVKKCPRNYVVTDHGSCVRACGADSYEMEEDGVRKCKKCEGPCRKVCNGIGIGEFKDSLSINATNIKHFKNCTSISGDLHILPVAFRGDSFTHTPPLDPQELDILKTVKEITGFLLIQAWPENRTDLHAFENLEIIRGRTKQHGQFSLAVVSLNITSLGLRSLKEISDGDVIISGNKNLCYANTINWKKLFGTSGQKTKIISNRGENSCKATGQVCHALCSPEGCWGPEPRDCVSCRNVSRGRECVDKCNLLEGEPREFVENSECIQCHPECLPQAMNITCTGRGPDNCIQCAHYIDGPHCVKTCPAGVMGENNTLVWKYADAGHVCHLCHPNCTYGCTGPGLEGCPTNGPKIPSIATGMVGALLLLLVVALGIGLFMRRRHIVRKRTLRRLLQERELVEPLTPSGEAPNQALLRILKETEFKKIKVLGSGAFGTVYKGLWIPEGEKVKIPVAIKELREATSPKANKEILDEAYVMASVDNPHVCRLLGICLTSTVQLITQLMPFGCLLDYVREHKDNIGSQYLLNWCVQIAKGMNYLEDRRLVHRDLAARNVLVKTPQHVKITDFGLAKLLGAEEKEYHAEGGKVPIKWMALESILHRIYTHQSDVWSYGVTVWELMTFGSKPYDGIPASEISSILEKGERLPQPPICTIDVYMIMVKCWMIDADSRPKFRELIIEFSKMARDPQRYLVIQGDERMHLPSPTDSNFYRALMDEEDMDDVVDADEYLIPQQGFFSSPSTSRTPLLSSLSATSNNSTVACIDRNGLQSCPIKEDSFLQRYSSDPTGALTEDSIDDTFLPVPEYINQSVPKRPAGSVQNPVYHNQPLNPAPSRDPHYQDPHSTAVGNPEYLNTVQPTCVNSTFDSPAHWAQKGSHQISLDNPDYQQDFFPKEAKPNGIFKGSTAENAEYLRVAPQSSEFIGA

NCI-H1975 [3] = test: cells; type: functional, cell-based; conditions: Homo sapiens, NCI-H1975, 72 h
HCC827 = test: Antiproliferative activity against human HCC827 cells expressing EGFR del119 mutant assessed as inhibition in cell viability after 72 hrs by CCK8 assay; type: functional, cell-based; conditions: HCC827, 72 h
NCI-H1299 [4] = test: Antiproliferative activity against human NCI-H1299 cells expressing wild type EGFR assessed as inhibition in cell viability after 72 hrs by CCK8 assay; type: functional, cell-based; conditions: NCI-H1299, 72 h
NCI-H1299 [5] = test: Induction of cell cycle arrest in human NCI-H1299 cells assessed as accumulation at S phase at 0.02 uM after 36 hrs by PI staining based flow cytometry analysis (reference value: 24.8%); type: functional
NCI-H1299 [6] = test: Induction of cell cycle arrest in human NCI-H1299 cells assessed as accumulation at G2/M phase at 0.1 uM after 36 hrs by PI staining based flow cytometry analysis (reference value: 5.6%); type: functional
NCI-H1299 [7] = test: Induction of cell cycle arrest in human NCI-H1299 cells assessed as accumulation at S phase at 0.1 uM after 36 hrs by PI staining based flow cytometry analysis (reference value: 24.8%); type: functional
NCI-H1299 [8] = test: Induction of cell cycle arrest in human NCI-H1299 cells assessed as accumulation at G0/G1 phase at 0.5 uM after 36 hrs by PI staining based flow cytometry analysis (reference value: 70.2%); type: functional
NCI-H1299 [9] = test: Induction of cell cycle arrest in human NCI-H1299 cells assessed as accumulation at G2/M phase at 2.5 uM after 36 hrs by PI staining based flow cytometry analysis (reference value: 5.6%); type: functional
NCI-H1299 [10] = test: Induction of cell cycle arrest in human NCI-H1299 cells assessed as accumulation at S phase at 2.5 uM after 36 hrs by PI staining based flow cytometry analysis (reference value: 24.8%); type: functional
NCI-H1975 [11] = test: Induction of cell cycle arrest in human NCI-H1975 cells assessed as accumulation at G2/M phase at 0.02 uM after 36 hrs by PI staining based flow cytometry analysis (reference value: 43.1%); type: functional
NCI-H1975 [12] = test: Induction of cell cycle arrest in human NCI-H1975 cells assessed as accumulation at S phase at 0.02 uM after 36 hrs by PI staining based flow cytometry analysis (reference value: 32.7 %); type: functional
NCI-H1975 [13] = test: Induction of cell cycle arrest in human NCI-H1975 cells assessed as accumulation at G0/G1 phase at 2.5 uM after 36 hrs by PI staining based flow cytometry analysis (reference value: 24.2%); type: functional
NCI-H1299 [14] = test: Induction of apoptosis in human NCI-H1299 cells assessed as increase in early apoptotic cells at 0.02 uM after 36 hrs by annexin-V-FITC/PI staining based flow cytometric analysis (reference value: 0.79%); type: functional
NCI-H1299 [15] = test: Induction of apoptosis in human NCI-H1299 cells assessed as increase in necrotic cells at 0.02 uM after 36 hrs by annexin-V-FITC/PI staining based flow cytometric analysis (reference value: 0.75%); type: functional
NCI-H1299 [16] = test: Induction of apoptosis in human NCI-H1299 cells assessed as increase in viable cells at 0.1 uM after 36 hrs by annexin-V-FITC/PI staining based flow cytometric analysis (reference value: 94.1%); type: functional
NCI-H1299 [17] = test: Induction of apoptosis in human NCI-H1299 cells assessed as increase in late apoptotic cells at 0.1 uM after 36 hrs by annexin-V-FITC/PI staining based flow cytometric analysis (reference value: 4.39%); type: functional
NCI-H1299 [18] = test: Induction of apoptosis in human NCI-H1299 cells assessed as increase in late apoptotic cells at 0.5 uM after 36 hrs by annexin-V-FITC/PI staining based flow cytometric analysis (reference value: 4.39%); type: functional
NCI-H1299 [19] = test: Induction of apoptosis in human NCI-H1299 cells assessed as increase in necrotic cells at 0.5 uM after 36 hrs by annexin-V-FITC/PI staining based flow cytometric analysis (reference value: 0.75%); type: functional
NCI-H1299 [20] = test: Induction of apoptosis in human NCI-H1299 cells assessed as increase in early apoptotic cells at 2.5 uM after 36 hrs by annexin-V-FITC/PI staining based flow cytometric analysis (reference value: 0.79%); type: functional
NCI-H1975 [21] = test: Induction of apoptosis in human NCI-H1975 cells assessed as increase in viable cells at 0.02 uM after 36 hrs by annexin-V-FITC/PI staining based flow cytometric analysis (reference value: 94.6%); type: functional
NCI-H1975 [22] = test: Induction of apoptosis in human NCI-H1975 cells assessed as increase in early apoptotic cells at 0.02 uM after 36 hrs by annexin-V-FITC/PI staining based flow cytometric analysis (reference value: 1.24%); type: functional
NCI-H1975 [23] = test: Induction of apoptosis in human NCI-H1975 cells assessed as increase in late apoptotic cells at 0.02 uM after 36 hrs by annexin-V-FITC/PI staining based flow cytometric analysis (reference value: 3.85%); type: functional
NCI-H1975 [24] = test: Induction of apoptosis in human NCI-H1975 cells assessed as increase in necrotic cells at 0.02 uM after 36 hrs by annexin-V-FITC/PI staining based flow cytometric analysis (reference value: 0.35%); type: functional
NCI-H1975 [25] = test: Induction of apoptosis in human NCI-H1975 cells assessed as increase in viable cells at 0.1 uM after 36 hrs by annexin-V-FITC/PI staining based flow cytometric analysis (reference value: 94.6%); type: functional
NCI-H1975 [26] = test: Induction of apoptosis in human NCI-H1975 cells assessed as increase in viable cells at 0.5 uM after 36 hrs by annexin-V-FITC/PI staining based flow cytometric analysis (reference value: 94.6%); type: functional
NCI-H1975 [27] = test: Induction of apoptosis in human NCI-H1975 cells assessed as increase in late apoptotic cells at 0.5 uM after 36 hrs by annexin-V-FITC/PI staining based flow cytometric analysis (reference value: 3.85%); type: functional
NCI-H1975 [28] = test: Induction of apoptosis in human NCI-H1975 cells assessed as increase in necrotic cells at 0.5 uM after 36 hrs by annexin-V-FITC/PI staining based flow cytometric analysis (reference value: 0.35%); type: functional
NCI-H1975 [29] = test: Induction of apoptosis in human NCI-H1975 cells assessed as increase in late apoptotic cells at 2.5 uM after 36 hrs by annexin-V-FITC/PI staining based flow cytometric analysis (reference value: 3.85%); type: functional
NCI-H1975 [30] = test: Induction of apoptosis in human NCI-H1975 cells assessed as increase in necrotic cells at 2.5 uM after 36 hrs by annexin-V-FITC/PI staining based flow cytometric analysis (reference value: 0.35%); type: functional

Epidermal growth factor receptor (Homo sapiens, UniProt P00533, C797S/T790M), sequence (P00533 25-1210 T790M/C797S limits assumed): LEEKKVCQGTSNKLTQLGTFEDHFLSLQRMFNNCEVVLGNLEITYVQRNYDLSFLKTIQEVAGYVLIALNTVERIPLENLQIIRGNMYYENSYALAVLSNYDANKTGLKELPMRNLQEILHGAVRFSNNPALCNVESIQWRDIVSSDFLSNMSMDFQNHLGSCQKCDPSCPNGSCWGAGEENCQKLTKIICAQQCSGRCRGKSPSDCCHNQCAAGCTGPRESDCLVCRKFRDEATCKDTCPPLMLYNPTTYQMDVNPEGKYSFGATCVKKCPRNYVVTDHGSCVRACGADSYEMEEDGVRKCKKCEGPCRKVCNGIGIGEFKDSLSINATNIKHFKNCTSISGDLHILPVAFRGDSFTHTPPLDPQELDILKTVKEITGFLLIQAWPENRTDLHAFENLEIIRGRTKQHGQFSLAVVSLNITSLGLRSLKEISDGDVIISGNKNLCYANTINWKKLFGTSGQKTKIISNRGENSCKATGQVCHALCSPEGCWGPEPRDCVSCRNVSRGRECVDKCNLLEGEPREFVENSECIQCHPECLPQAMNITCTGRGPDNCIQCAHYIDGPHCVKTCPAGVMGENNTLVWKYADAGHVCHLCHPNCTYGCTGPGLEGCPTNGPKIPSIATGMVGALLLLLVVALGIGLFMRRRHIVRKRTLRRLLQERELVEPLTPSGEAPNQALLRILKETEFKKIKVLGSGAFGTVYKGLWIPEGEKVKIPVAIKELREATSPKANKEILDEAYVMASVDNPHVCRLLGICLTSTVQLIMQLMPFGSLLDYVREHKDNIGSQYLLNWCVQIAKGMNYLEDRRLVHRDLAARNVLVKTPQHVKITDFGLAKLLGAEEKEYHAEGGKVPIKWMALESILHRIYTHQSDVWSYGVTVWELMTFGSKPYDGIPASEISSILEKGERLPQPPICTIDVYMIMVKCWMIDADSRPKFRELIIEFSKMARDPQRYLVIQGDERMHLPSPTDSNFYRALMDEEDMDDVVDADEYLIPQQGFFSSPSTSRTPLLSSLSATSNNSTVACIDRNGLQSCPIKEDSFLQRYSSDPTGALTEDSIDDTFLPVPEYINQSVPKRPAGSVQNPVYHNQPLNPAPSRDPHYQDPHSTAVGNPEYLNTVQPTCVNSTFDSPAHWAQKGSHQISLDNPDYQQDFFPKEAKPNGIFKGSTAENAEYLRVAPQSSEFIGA

Q: Which results are given for C#CCN(C)CCN(C)c1cc(OC)c(Nc2nccc(Nc3cn(C)c4ccccc34)n2)cc1NC(=O)C=C?
A: IC50 [1]: 4.01 nM; IC50 [2]: > 10000 nM; IC50 (NCI-H1975 [3]): 2.58 nM; IC50 (HCC827): 3.63 nM; IC50 (NCI-H1299 [4]): > 100000 nM; Activity (NCI-H1299 [5]): 23.8%; Activity (NCI-H1299 [6]): 5.7%; Activity (NCI-H1299 [7]): 23.7%; Activity (NCI-H1299 [8]): 68.4%; Activity (NCI-H1299 [9]): 7.8%; Activity (NCI-H1299 [10]): 24.7%; Activity (NCI-H1975 [11]): 50.2%; Activity (NCI-H1975 [12]): 27.3%; Activity (NCI-H1975 [13]): 17%; Activity (NCI-H1299 [14]): 1.05%; Activity (NCI-H1299 [15]): 0.65%; Activity (NCI-H1299 [16]): 92.6%; Activity (NCI-H1299 [17]): 5.69%; Activity (NCI-H1299 [18]): 5.63%; Activity (NCI-H1299 [19]): 0.77%; Activity (NCI-H1299 [20]): 0.95%; Activity (NCI-H1975 [21]): 94.9%; Activity (NCI-H1975 [22]): 1.98%; Activity (NCI-H1975 [23]): 3.09%; Activity (NCI-H1975 [24]): 0.038%; Activity (NCI-H1975 [25]): 92.2%; Activity (NCI-H1975 [26]): 79.2%; Activity (NCI-H1975 [27]): 8.52%; Activity (NCI-H1975 [28]): 0.021%; Activity (NCI-H1975 [29]): 7.25%; Activity (NCI-H1975 [30]): 0.012%
